# From PMC6091370, “Preclinical Evaluation of [^18F]LCATD as a PET Tracer to Study Drug-Drug Interactions Caused by Inhibition of Hepatic Transporters” (Contrast Media & Molecular Imaging, 2018)
# “And” between values parts separate entries of the source, which are not always exact repeats. Identical values can stand only once.
# Assays:
# OATP1B1 [1] = conditions: cited from earlier work
# BSEP [2] = conditions: read-out: IC50 for BSEP; cited from earlier work
# NTCP [3] = conditions: cited from earlier work
# [4] = Postmortem metabolites analysis by radio-HPLC; format: in vivo, rat; conditions: 50 min postinjection
# Protocol: Analysis of metabolites in the blood, liver, and bile (extracted from the intestine) was performed via radio-HPLC. Blood samples, collected by cardiac puncture at the end of the PET-CT scan, were treated with an equal volume of acetonitrile, centrifuged for 1 minute at 1000 rpm and the supernatant was injected in radio-HPLC (Shimadzu Prominence HPLC system equipped with a PDA UV detector and HERM LB500 activity detector and Phenomenex Luna C18 column, 5 μm, 100 Å, 250 × 4.6 mm, injection volume 20 µL, PBS/CH3CN 60 : 40, isocratic elution, flow: 1 mL·min^−1). Samples of the liver and duodenum were collected at the end of the PET-CT scan (after euthanasia) homogenated with methanol (80% in water, 5 mL per gram of biological sample) by means of a homogenizer and centrifuged for 1 minute at 1000 rpm and the supernatant was injected in radio-HPLC.
# [5] = Postmortem biodistribution of the tracer (gamma counting, 50 min postinjection); format: in vivo, rat; conditions: for activity in the terminal blood sample versus control: p < 0.05
# Protocol: Samples of the liver, heart, and kidney were collected at the end of the PET-CT scan (after euthanasia) and homogenised with methanol (80% in water, 5 mL per gram of biological sample) by means of a homogenizer. Samples were stored in preweighed plastic vials. Terminal blood was collected by cardiac puncture just before euthanasia. The activity of the homogenates and blood samples was measured by means of a precalibrated gamma counter as soon as possible after the PET experiment.
# BSEP [6] = system: BSEP; design: method as in PMID 28011201; conditions: in vitro; cited from earlier work
# OATP1B3 = system: OATP1B3; design: method as in PMID 28011201; conditions: in vitro; cited from earlier work
# [7] = Dynamic PET/CT imaging of hepatic uptake and biliary excretion of [18F]LCATD in rats; format: in vivo, rat; conditions: for CLuptake,in vivo (in vivo hepatic uptake clearance): Patlak integration plot 0–3 min; for CLuptake,in vivo (in vivo hepatic uptake clearance) / t max (time to maximum peak concentration in liver) / AUCbile 0–10 min (radioactivity in the gastrointestinal tract) / AUCliver 0–5 min / AUCliver 0–30 min / CLint,bile (intrinsic biliary clearance of the radiotracer) / Kp liver 0−5 min (apparent liver-to-blood AUC0–5 min ratio) / Cmax,liver (maximum measured activity in the liver): n=3
# Protocol: PET scans were performed with a preclinical PET/CT SEDECAL ARGUS scanner (SEDECAL, Spain) housed in a temperature-controlled suite. The scanner has two 11.8 cm diameter rings of photoswitch detectors coupled to position-sensitive photomultiplier tubes, giving a 4.8 cm axial and 7.5 cm transaxial field of view (FOV). All animals were cannulated (Venisystem Butterfly, Abbott Ireland) in the tail vein for tracer injection under general anaesthesia with isoflurane (IsoFlo 100% w/w, Abbott Laboratories Ltd) 2.5% (2 L·min^−1 oxygen flow). Animals were divided into three groups: control group (administered with [ ^18 F]LCATD only, 3 animals), rifamycin SV-treated group (3 animals) and fusidate-treated group (3 animals). All the animals were scanned in supine position. At the start of the scan, [ ^18 F]LCATD (5–15 MBq per body) was injected as a single bolus into the tail vein. Administered radioactivity was measured as the net counts in the syringe before and after the injection with an ionization chamber (Capintec CRC-15PET; Ramsey, New Jersey). The mass amount of [ ^18 F]LCATD administered per animal was estimated to be between 0.2 and 1 nmol. For inhibition experiments, rifamycin SV was administrated 45 minutes before the start of the scan at a dose of 50mg·Kg^−1 (intraperitoneally) and at the time of the tracer injection at a dose of 12.5 mg·Kg^−1 (intravenously). For the in vivo assessment of the inhibitory effect of sodium fusidate on the hepatobiliary transport of the tracer, the drug was administrated at a dose of 20 mg·Kg^−1 (intraperitoneally) 30 minutes before the scan and at a dose of 10 mg·Kg^−1 (intravenously) after 15 minutes from the tracer injection. Emission scans in 3D list-mode were acquired for 30 minutes (with a FOV encompassing part of the thorax and the intestine) followed by a 5 minutes CT scan. PET acquisitions were obtained with an energy window set to 250–700 keV and corrections for dead-time, activity decay, attenuation, random, and scatter counts were applied (using the manufacturer' software). The dynamic images were obtained by sorting the list mode data into the following time frames: 6 × 10 s, 8 × 30 s, 10 × 60 s, and 3 × 300 s, and images were reconstructed with a FORE/2D-OSEM reconstruction algorithm (provided by the manufacturer). Sampling at shorter intervals during early time-points enabled us to detect rapid increments of tracer uptake in the liver and intestine. […] A 5-minute PET scan of the injection site at the end of the CT was obtained to ensure successful intravenous injection. Cross calibration between the ionization chamber and the PET scanner was carried out by using a cylindrical phantom made of Perspex with internal diameter of 43 mm and length of 37 mm. 10 to 20 minute PET scans of the phantom filled with an average of about 4.20 MBq of [ ^18 F]LCATD in 60 g of water were acquired (average dead-time value 4%).
# The registered PET and CT images were transferred from the scanner to a processing workstation, and subsequent analysis was carried out using Pmod (Pmod Technologies, CH) version 3.2. Regions of interest (ROIs) corresponding to abdominal aorta, liver, and gastrointestinal tract were defined via a combination of manual and threshold methods (Supplementary Figure 1 and movie) using PMOD software (PMOD Technologies). The stomach was included in the gastrointestinal ROI to include the amount of bile that might have refluxed from the duodenum into the stomach.
# Uptake hepatic clearance CLuptake,in vivo was calculated by integration plots obtained applying the Patlak method in Pmod (Pmod Technologies, CH) version 3.2, limiting the linear fit to the uptake phase (0–3 min).
# Intrinsic biliary clearance of the radiotracer CLint,bile was determined as proposed by Takashima et al. by quantification of the radiotracer in the liver and the intestine (as amount of radiotracer excreted into the bile).
# OATP1B1 [8] = system: OATP1B1; design: method as in PMID 28011201; conditions: in vitro; cited from earlier work
# [9] = design: method as in PMID 28011201; conditions: in vitro; cited from earlier work
# NTCP [10] = system: NTCP; design: method as in PMID 28011201; conditions: in vitro; cited from earlier work
# MRP2 transporter = system: MRP2 transporter; design: method as in PMID 27676153; conditions: 0.3–300 µM, increased efflux of LTC4, MRP2 transfected membrane vesicles; cited from earlier work
# [11] = rifamycin SV-treated rats (total dose 62.5 mg·Kg^−1)
compound,measurement,setting,value
CO[C@H]1/C=C/O[C@@]2(C)Oc3c(C)c(O)c4c(O)c(cc(O)c4c3C2=O)NC(=O)/C(C)=C\C=C\[C@H](C)[C@H](O)[C@@H](C)[C@@H](O)[C@@H](C)[C@H](OC(C)=O)[C@@H]1C [rifamycin SV],IC50,OATP1B1 [1],0.2 to 0.4 µM
same,IC50,BSEP [2],6.3 µM
same,Ki,NTCP [3]; read-out: K i for NTCP,> 63 µM
CC(=O)O[C@H]1C[C@@]2(C)[C@@H](C[C@@H](O)[C@H]3[C@@]4(C)CC[C@@H](O)[C@@H](C)[C@@H]4CC[C@@]32C)/C1=C(\CCC=C(C)C)C(=O)O [sodium fusidate],IC50,OATP1B1 [1],1.6 to 35 µM
same,IC50,BSEP [2],3.8 to 11.5 µM
same,IC50,NTCP [3],44 µM
"C[C@H](CCC(=O)NC(Cc1cn(CCCC[18F])nn1)C(=O)O)[C@H]1CC[C@H]2[C@@H]3CC[C@@H]4C[C@H](O)CC[C@]4(C)[C@H]3CC[C@]12C (some centres unmarked) [[ ^18 F]LCATD, LithoCholic Acid Triazole Derivative]",metabolic stability of the tracer,"[4]; in vivo, rat",at least 90%
same,share of activity in intestine extracts as twin peak matching [18F]LCATD,"[4]; radio-HPLC, intestine extracts of two control animals",over 90%
same,activity in the terminal blood sample versus control,[5]; fusidate-treated rats,significantly increased
same,activity in the kidneys,[5]; postmortem,< 0.1 % of the injected dose
same,activity in the terminal blood sample versus control,[5]; rifamycin SV-treated rats,significantly increased
same,transport by efflux transporter BSEP,BSEP [6],excreted into the bile via the efflux transporter BSEP
same,transport by OATP1B3,OATP1B3,low affinity substrate
same,activity in the liver 2 minutes after tracer injection,[7]; control rats,14.2 ± 0.8%
same,maximum activity recorded in the liver,[7]; control rats,14.2 ± 0.8 % of the injected dose
same,residual activity in the liver after 30 minutes,[7]; control rats,1.04 ± 0.17 % of the injected dose
same,"CLuptake,in vivo (in vivo hepatic uptake clearance)","[7]; control rats, image-derived blood input",2.09 ± 0.27 mL/min/g
same,t max (time to maximum peak concentration in liver),"[7]; control rats, [18F]LCATD only, iv bolus",2.25 min
same,AUCbile 0–10 min (radioactivity in the gastrointestinal tract),[7]; control rats,89 ± 1 % ID·min·mL^−1
same,AUCliver 0–5 min,[7]; control rats,58 ± 1 % ID·min·mL^−1
same,AUCliver 0–30 min,[7]; control rats,110 ± 15 % ID·min·mL^−1
same,"CLint,bile (intrinsic biliary clearance of the radiotracer)",[7]; control rats,0.17 ± 0.03 mL/min/g
same,Kp liver 0−5 min (apparent liver-to-blood AUC0–5 min ratio),[7]; control rats,3.64 ± 0.09
same,activity in the liver after 30 minutes,[7]; fusidate-treated rats,1.02 ± 0.02 % of the injected dose
same,t max (time to maximum peak concentration in liver),[7]; fusidate-treated rats (20 mg·Kg^−1 ip 30 min before scan + 10 mg·Kg^−1 iv 15 min after tracer injection),2.25 min
same,maximum activity recorded in the liver,[7]; fusidate-treated rats (30 mg·Kg^−1),11.5 ± 0.3 % of the injected dose
same,"CLuptake,in vivo (in vivo hepatic uptake clearance)",[7]; fusidate-treated rats,1.40 ± 0.13^∗ mL·min^−1·g^−1
same,AUCbile 0–10 min (radioactivity in the gastrointestinal tract),[7]; fusidate-treated rats,93 ± 19 % ID·min·mL^−1
same,AUCliver 0–5 min,[7]; fusidate-treated rats,48 ± 0.3^∗ % ID·min·mL^−1
same,AUCliver 0–30 min,[7]; fusidate-treated rats,89 ± 11 % ID·min·mL^−1
same,"CLint,bile (intrinsic biliary clearance of the radiotracer)",[7]; fusidate-treated rats,0.36 ± 0.03^∗ mL·min^−1·g^−1
same,"Cmax,liver (maximum measured activity in the liver)",[7]; fusidate-treated rats,11.5 ± 0.3^∗ % ID·mL^−1
same,Kp liver 0−5 min (apparent liver-to-blood AUC0–5 min ratio),[7]; fusidate-treated rats,2.451 ± 0.016
same,activity in the liver 2 minutes after tracer injection,[7]; rifamycin SV-treated rats,8.0 ± 0.6%
same,activity in the liver after 30 minutes,[7]; rifamycin SV-treated rats,1.87 ± 0.13 % of the injected dose
same,t max (time to maximum peak concentration in liver),[7]; rifamycin SV-treated rats (50 mg·Kg^−1 ip 45 min before scan + 12.5 mg·Kg^−1 iv at tracer injection),3.75 min
same,delay of t max relative to control rats,[7]; [11],1.5 min
same,maximum activity recorded in the liver,[7]; [11],10.2 ± 0.9 % of the injected dose and 10.2 ± 1.0 % of the injected dose
same,"CLuptake,in vivo (in vivo hepatic uptake clearance)",[7]; rifamycin SV-treated rats,0.71 ± 0.05^∗ mL·min^−1·g^−1
same,AUCbile 0–10 min (radioactivity in the gastrointestinal tract),[7]; rifamycin SV-treated rats,53 ± 3^∗ % ID·min·mL^−1
same,AUCliver 0–5 min,[7]; rifamycin SV-treated rats,44 ± 4^∗ % ID·min·mL^−1
same,AUCliver 0–30 min,[7]; rifamycin SV-treated rats,139 ± 9 % ID·min·mL^−1
same,"CLint,bile (intrinsic biliary clearance of the radiotracer)",[7]; rifamycin SV-treated rats,0.12 ± 0.03 mL/min/g
same,"Cmax,liver (maximum measured activity in the liver)",[7]; rifamycin SV-treated rats,10.2 ± 0.9^∗ % ID·mL^−1
same,Kp liver 0−5 min (apparent liver-to-blood AUC0–5 min ratio),[7]; rifamycin SV-treated rats,2.07 ± 0.17
same,activity in the liver 2 minutes after tracer injection,[7]; sodium fusidate-treated rats,11.4 ± 0.4%
same,transport by uptake transporter OATP1B1,OATP1B1 [8],substrate
same,passive permeability,[9],low
same,transport by uptake transporter NTCP,NTCP [10],substrate
CC(=O)O[C@H]1C[C@@]2(C)[C@@H](C[C@@H](O)[C@H]3[C@@]4(C)CC[C@@H](O)[C@@H](C)[C@@H]4CC[C@@]32C)/C1=C(\CCC=C(C)C)C(=O)O [fusidic acid],effect on MRP2 transporter (canalicular efflux) in vitro,MRP2 transporter,stimulate
